According to article PMC6959544 (Bioorganic & medicinal chemistry, 2017):

Tests used:
hTRPV1 = hTRPV1 (Homo sapiens, UniProt Q8NER1); test: In vitro hTRPV1 antagonism: inhibition of activation by capsaicin; assay type: cell-based; settings: hTRPV1 in CHO cells, capsaicin 100 nM, FLIPR
[1] = test system: CCI-induced cold allodynia (Bennett mouse model of neuropathic pain); test: Analgesic activity on CCI-induced cold allodynia; assay type: in vivo; settings: oral
[2] = test system: capsaicin-induced hypothermia; test: Capsaicin-induced hypothermia; assay type: in vivo; settings: data not shown

Sequence of hTRPV1 (Q8NER1 whole entry): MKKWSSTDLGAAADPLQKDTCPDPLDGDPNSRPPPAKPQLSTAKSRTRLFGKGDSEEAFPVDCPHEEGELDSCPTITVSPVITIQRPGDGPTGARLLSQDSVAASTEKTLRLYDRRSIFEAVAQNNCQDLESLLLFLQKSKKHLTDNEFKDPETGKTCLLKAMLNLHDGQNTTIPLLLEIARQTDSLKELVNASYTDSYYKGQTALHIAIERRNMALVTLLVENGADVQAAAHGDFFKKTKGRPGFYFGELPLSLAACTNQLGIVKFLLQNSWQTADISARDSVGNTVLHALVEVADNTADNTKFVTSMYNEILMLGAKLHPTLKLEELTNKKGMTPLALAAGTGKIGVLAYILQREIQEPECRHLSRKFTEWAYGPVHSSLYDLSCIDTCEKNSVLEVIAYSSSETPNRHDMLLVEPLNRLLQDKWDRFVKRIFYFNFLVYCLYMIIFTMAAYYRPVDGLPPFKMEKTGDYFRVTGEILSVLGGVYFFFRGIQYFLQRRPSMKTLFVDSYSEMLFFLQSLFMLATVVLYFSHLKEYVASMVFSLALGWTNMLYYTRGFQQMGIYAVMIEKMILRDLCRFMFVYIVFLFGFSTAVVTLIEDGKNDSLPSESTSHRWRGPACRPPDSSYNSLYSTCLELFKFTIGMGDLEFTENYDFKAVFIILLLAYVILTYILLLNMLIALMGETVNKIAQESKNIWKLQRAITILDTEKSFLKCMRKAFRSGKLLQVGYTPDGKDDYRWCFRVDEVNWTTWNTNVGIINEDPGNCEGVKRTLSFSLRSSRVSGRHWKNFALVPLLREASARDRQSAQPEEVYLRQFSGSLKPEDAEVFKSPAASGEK

For CC(C(=O)NCc1ccc(C(C)(C)C)nc1OCc1ccc(F)cc1)c1ccc(NS(C)(=O)=O)c(F)c1 (centres unmarked) [Compound 23, N-((6-(tert-Butyl)-2-((4-fluorobenzyl)oxy)pyridin-3-yl)methyl)-2-(3-fluoro-4-(methylsulfonamido)phenyl)propanamide], which “hTRPV1 antagonism (in words)” value (hTRPV1) is on record?
The value was “good antagonism”.

For C[C@H](C(=O)NCc1ccc(C(C)(C)C)nc1SC1CCCCC1)c1ccc(NS(C)(=O)=O)c(F)c1 [Compound 34S], which “antiallodynic effect on cold allodynia, % MPE” value ([1]; 3 mg/kg) is on record?
The value was “greater than 50 % MPE”.

And the “in vivo functional character (in words)” value ([1]; 10 mg/kg)?
Its value is “partial agonism”.

What about the “antiallodynic activity (in words)” value ([1]; dose increased from 3 mg/kg to 10 mg/kg) of the same compound?
The value was “decreased antiallodynic activity”.

And the “capsaicin-induced hypothermia, % MPE” value ([2]; 3 mg/kg po)?
Its value is 46 % MPE.

And the “capsaicin-induced hypothermia, % MPE” value ([2]; 10 mg/kg po)?
The value was 15 % MPE.

With “N-((6-(tert-Butyl)-2-(cyclohexyloxy)pyridin-3-yl)methyl)-2-(3-fluoro-4-(methylsulfonamido)phenyl)propanamide [Compound 21]” as the compound, how does the “hTRPV1 antagonism (in words)” value (hTRPV1) read?
The value was “clear reduction in potency”.

With “N-((6-(tert-Butyl)-2-(cyclopentyloxy)pyridin-3-yl)methyl)-2-(3-fluoro-4-(methylsulfonamido)phenyl)propanamide [Compound 20]” as the compound, how does the “hTRPV1 antagonism (in words)” value (hTRPV1) read?
The value was “clear reduction in potency”.
